Patent publication US12459908B2, “Alpha, beta unsaturated methacrylic esters with anti-inflammatory properties” (Sitryx Therapeutics Limited, priority 2020, dated 2025)
pEC50, pIC50: −log10 of the molar value. Counter-ions that a name gives are not always drawn.

Tests used:
[1] = test system: cryo-preserved hepatocytes; assay: Hepatocyte stability assay, mouse cryopreserved hepatocytes; type: in vitro ADME; settings: Mouse hepatocytes, 10 μM, 60 min; class symbols
Source text: (§1) Biological Example 3—Hepatocyte Stability Assay
(§2) Defrosted cryo-preserved hepatocytes (viability >70%) were used to determine the metabolic stability of a compound via calculation of intrinsic clearance (CIint; a measure of the removal of a compound from the liver in the absence of blood flow and cell binding). Clearance data are particularly important for in vitro work as they can be used in combination with in vivo data to predict the half-life and oral bioavailability of a drug.
(§3) The metabolic stability in hepatocytes assay involves a time-dependent reaction using both positive and negative controls. The cells were pre-incubated at 37° C. and spiked with test compound (and positive control); samples taken at pre-determined time intervals were analysed to monitor the change in concentration of the initial drug compound over 60 minutes. A buffer incubation reaction (with no hepatocytes present) acted as a negative control and two cocktail solutions, containing compounds with known high and low clearance values (verapamil/7-hydroxycoumarin and propranolol/diltiazem), acted as positive controls. • 1. The assay was run with a cell concentration of 0.5×10^6 cells/mL in Leibovitz buffer. • 2. All compounds and controls were run in duplicate. • 3. Compound concentration was 10 μM. • 4. All compounds and controls were incubated with both cells and buffer to show turnover was due to hepatic metabolism. • 5. All wells on the incubation plate had 326.7 μL of either cells or buffer added. • 6. Prior to assay, cell and buffer-only incubation plates were preincubated for 10 mins at 37° C. • 7. The assay was initiated by adding compounds, 3.3 μL of 1 mM in 10% DMSO-90% Buffer; final DMSO concentration is 0.1%. • 8. Samples were taken at regular timepoints (0, 5, 10, 20, 40, 60 min) until 60 mins. • 9. Sample volume was 40 μL and was added to 160 μL of crash solvent (acetonitrile with internal standard) and stored on ice. • 10. At the end of the assay, the crash plates were centrifuged at 3500 rpm for 20 mins at 4° C. • 11. 80 μL of clear supernatant was removed and mixed with 80 μL of deionised water before being analysed by LC-MS/MS.
(§4) Raw LC-MS/MS data was exported to, and analysed in, Microsoft Excel for determination of intrinsic clearance. The percentage remaining of a compound was monitored using the peak area of the initial concentration as 100%. Intrinsic clearance and half-life values were calculated using a graph of the natural log of percentage remaining versus the time of reaction in minutes. Half-life (min) and intrinsic clearance (CIint in μL min^−1 10^−6 cells) values were calculated using the gradient of the graph (the elimination rate constant, k) and Equations 1 and 2.

[2] = as above; type: in vitro ADME; settings: cryopreserved hepatocytes; Mouse hepatocytes, 10 μM, 60 min; class symbols; read-out: T½
Source text: as §1, §2, §3, §4

IL-1β = assay: THP-1 AlphaLISA IL-1β cytokine inhibition assay (differentiated THP-1 cells); type: cell-based; settings: Homo sapiens, LPS 24 hr then Nigericin 1 hour, class symbols
Procedure: Biological Example 1—THP-1 AlphaLISA IL-1β
Measuring Inhibitory Effects on IL-1, Cytokine Output from THP-1s
(§5) The cytokine inhibition profiles of compounds of formula (I) were determined in a differentiated THP-1 cell assay. All assays were performed in RPMI-1640 growth medium (Gibco), supplemented with 10% fetal bovine serum (FBS; Gibco), 1% penicillin-streptomycin and 1% sodium pyruvate unless specified otherwise. The IL-1p cytokine inhibition assay was run in a background of differentiated THP-1 cells as described below. All reagents described were from Sigma-Aldrich unless specified otherwise. Compounds were prepared as 10 mM DMSO stocks.
(§6) THP-1 cells were expanded as a suspension up to 80% confluence in appropriate growth medium. Cells were harvested, suspended, and treated with an appropriate concentration of phorbol 12-myristate 13-acetate (PMA) over a 72 hr period (37° C./5% CO2).
(§7) Following 72 hrs of THP-1 cell incubation, cellular medium was removed and replaced with fresh growth media containing 1% of FBS. Working concentrations of compounds were prepared separately in 10% FBS treated growth medium and pre-incubated with the cells for 30 minutes (37° C./5% CO2). Following the 30 minute compound pre-incubation, THP-1s were treated with an appropriate concentration of LPS and the cells were subsequently incubated for a 24 hr period (37° C./5% CO2). An appropriate final concentration of Nigericin was then dispensed into the THP-1 plates and incubated for 1 hour (37° C./5% CO2) before THP-1 supernatants were harvested and collected in separate polypropylene 96-well holding plates.
(§8) Reagents from an IL-1β and IL-6 commercial kit (Perkin Elmer) were prepared and run according to the manufacturer's instructions. Subsequently, fluorescence signal detection in a microplate reader was measured (EnVision® Multilabel Reader, Perkin Elmer).
(§9) Percentage inhibition was calculated per cytokine by normalising the sample data to the high and low controls used within each plate (+/−LPS respectively). Percentage inhibition was then plotted against compound concentration and the 50% inhibitory concentration (IC50) was determined from the resultant concentration-response curve.

[3] = Hepatocyte stability assay, human cryopreserved hepatocytes; type: in vitro ADME; settings: cryopreserved hepatocytes; Human hepatocytes, 10 μM, 60 min; class symbols; read-out: T½
Source text: as §1, §2, §3, §4

IL-6 = assay: THP-1 AlphaLISA IL-6 cytokine inhibition assay (differentiated THP-1 cells); type: cell-based; settings: Homo sapiens, LPS 24 hr then Nigericin 1 hour, class symbols
Procedure: as §5, §6, §7, §8, §9

NRF2 = NRF2 activation assay (DiscoverX PathHunter NRF2 translocation kit, U2OS cells); type: cell-based; settings: Homo sapiens, 6 hours; for Emax: normalised to DMF high control
Procedure: Biological Example 2—NRF2 Activation Assay
Measuring Compound Activation Effects on the Anti-Inflammatory Transcription Factor NRF2 in DiscoverX PathHunter NRF2 Translocation Kit
Potency and efficacy of compounds of formula (I) against the target of interest to activate NRF2 (nuclear factor erythroid 2-related factor 2) were determined using the PathHunter NRF2 translocation kit (DiscoverX). The NRF2 translocation assay was run using an engineered recombinant cell line, utilising enzyme fragment complementation to determine activation of the Keap1-NRF2 protein complex and subsequent translocation of NRF2 into the nucleus. Enzyme activity was quantified using a chemiluminescent substrate consumed following the formation of a functional enzyme upon PK-tagged NRF2 translocation into the nucleus.
Additionally, a defined concentration of DMF was used as the ‘High’ control to normalise test compound activation responses to.
U2OS PathHunter eXpress cells were thawed from frozen prior to plating. Following plating, U2OS cells were incubated for 24 hrs (37° C./5% CO2) in commercial kit provided cell medium.
Following 24 hrs of incubation, plated U2OS cells were directly treated with an appropriate final concentration of compound. […]
Following compound treatment, the U2OS plates were incubated for a further 6 hours (37° C./5% CO2) before detection reagent from the PathHunter NRF2 commercial kit was prepared and added to test plates according to the manufacturer's instructions. Subsequently, the luminescence signal detection was measured in a microplate reader (PHERAstar®, BMG Labtech).
Percentage activation was calculated by normalising the sample data to the high and low controls used within each plate (+/−DMF). Percentage activation/response was then plotted against compound concentration and the 50% activation concentration ([…]) was determined from the plotted concentration-response curve.

Row | SMILES | Clint [1] | half-life at 10 μM [2] [min] | pIC50 (IL-1β) | half-life at 10 μM [3] [min] | pIC50 (IL-6) | pEC50 (NRF2; class symbols) | pEC50 (NRF2; numeric values) | Emax (NRF2; class symbols) [%] | Emax (NRF2; numeric values) [%]
1 | C=C(Cc1nc(Cc2ccc(OC(F)(F)F)cc2)no1)C(=O)OCC(=O)O [Example 20, 2-((2-((3-(4-(trifluoromethoxy)benzyl)-1,2,4-oxadiazol-5-yl)methyl)acryloyl)oxy)acetic acid] | ++ (++ means 95-350) | 5 to 11 | 5.00 to 5.30 | > 100 | > 5.30 |  |  |  | 
2 | C=C(Cc1nc(Cc2ccc(CCCC)cc2)no1)C(=O)OCc1nnn[nH]1 [Example 16, (1H-tetrazol-5-yl)methyl 2-((3-(4-butylbenzyl)-1,2,4-oxadiazol-5-yl)methyl)acrylate] | + (+ means ≥351) | ≤ 4 | > 5.30 | 5 to 59 | > 5.30 | > 5.30 |  | 135 to 165 | 
3 | C=C(Cc1nc(CCCCCCCC)no1)C(=O)OC(C(F)(F)F)C(C)(C)C(=O)O (centres unmarked) [Example 17, 4,4,4-trifluoro-2,2-dimethyl-3-((2-((3-octyl-1,2,4-oxadiazol-5-yl)methyl)acryloyl)oxy)butanoic acid] | + (+ means ≥351) | ≤ 4 | > 5.30 | 5 to 59 | > 5.30 |  |  |  | 
4 | C=C(Cc1nc(CCCCCCCC)no1)C(=O)OCCC(=O)O [Example 2] | + (+ means ≥351) | ≤ 4 | > 5.30 | 5 to 59 |  | > 5.30 |  | 135 to 165 | 
5 | C=C(Cc1nc(Cc2ccc(CCCC)cc2)no1)C(=O)O[C@H](CC(=O)O)C(F)(F)F [Example 9, (R)-3-((2-((3-(4-butylbenzyl)-1,2,4-oxadiazol-5-yl)methyl)acryloyl)oxy)-4,4,4-trifluorobutanoic acid] |  |  | > 5.30 |  | > 5.30 | > 5.30 |  | 101 to 134 | 

Now from value to compound, other results behind:

Row | Clint [1] | half-life at 10 μM [2] [min] | pIC50 (IL-1β) | half-life at 10 μM [3] [min] | pIC50 (IL-6) | pEC50 (NRF2; class symbols) | pEC50 (NRF2; numeric values) | SMILES | Emax (NRF2; class symbols) [%] | Emax (NRF2; numeric values) [%]
6 | + (+ means ≥351) | ≤ 4 | > 5.30 | 5 to 59 | > 5.30 | > 5.30 |  | C=C(Cc1nc(C2(c3ccc(SC(F)(F)F)cc3)CC2)no1)C(=O)OCC(=O)O [Example 22, 2-((2-((3-(1-(4-((trifluoromethyl)thio)phenyl)cyclopropyl)-1,2,4-oxadiazol-5-yl)methyl)acryloyl)oxy)acetic acid] | 135 to 165 | 
7 |  |  |  |  |  |  | 5.21 | COC(=O)/C=C/C(=O)OC [dimethyl fumarate, reference compound] |  | 100
8 |  |  | > 5.30 |  | > 5.30 | > 5.30 |  | C=C(Cc1nc(Cc2ccc(CCCCC)cc2)no1)C(=O)O[C@@H](CC(=O)O)C(F)(F)F [Example 12, (S)-4,4,4-trifluoro-3-((2-((3-(4-pentylbenzyl)-1,2,4-oxadiazol-5-yl)methyl)acryloyl)oxy)butanoic acid] | 166 to 250 | 
9 | + (+ means ≥351) | ≤ 4 | > 5.30 | 5 to 59 | > 5.30 |  |  | C=C(Cc1nc(Cc2ccc(CCCC)cc2)no1)C(=O)OCCC(=O)O [Example 15, 3-((2-((3-(4-butylbenzyl)-1,2,4-oxadiazol-5-yl)methyl)acryloyl)oxy)propanoic acid] |  | 
10 |  |  | 4.62 to 4.68 |  | 4.70 to 4.96 | 4.68 to 4.96 |  | C=C(Cc1nc(CCCCC)no1)C(=O)OCC(=O)O [Example 21, 2-((2-((3-pentyl-1,2,4-oxadiazol-5-yl)methyl)acryloyl)oxy)acetic acid] | 166 to 250 | 
11 |  |  | > 5.30 |  | > 5.30 | > 5.30 |  | C=C(Cc1nc(Cc2ccc(CCCCC)cc2)no1)C(=O)O[C@H](CC(=O)O)C(F)(F)F [Example 11, (R)-4,4,4-trifluoro-3-((2-((3-(4-pentylbenzyl)-1,2,4-oxadiazol-5-yl)methyl)acryloyl)oxy)butanoic acid] | 101 to 134 | 
